Reference: patent publication US9688722B2, “Substrates and inhibitors of prolyl oligopeptidase and methods of use” (The Board of Regents of the University of Oklahoma, priority 2012, dated 2017)
Where “and” joins values, the source holds several entries; their conditions need not be identical. Equal values may be shown once. Entries after “also recorded” stand apart in the source; their conditions may differ.

Tests used:
DPPIV = DPPIV (Homo sapiens, UniProt P27487); assay: DPPIV inhibition constants (Ki) with Tic-Pro-AFC substrate; type: biochemical
DPPIV, sequence (P27487 whole entry, species assumed): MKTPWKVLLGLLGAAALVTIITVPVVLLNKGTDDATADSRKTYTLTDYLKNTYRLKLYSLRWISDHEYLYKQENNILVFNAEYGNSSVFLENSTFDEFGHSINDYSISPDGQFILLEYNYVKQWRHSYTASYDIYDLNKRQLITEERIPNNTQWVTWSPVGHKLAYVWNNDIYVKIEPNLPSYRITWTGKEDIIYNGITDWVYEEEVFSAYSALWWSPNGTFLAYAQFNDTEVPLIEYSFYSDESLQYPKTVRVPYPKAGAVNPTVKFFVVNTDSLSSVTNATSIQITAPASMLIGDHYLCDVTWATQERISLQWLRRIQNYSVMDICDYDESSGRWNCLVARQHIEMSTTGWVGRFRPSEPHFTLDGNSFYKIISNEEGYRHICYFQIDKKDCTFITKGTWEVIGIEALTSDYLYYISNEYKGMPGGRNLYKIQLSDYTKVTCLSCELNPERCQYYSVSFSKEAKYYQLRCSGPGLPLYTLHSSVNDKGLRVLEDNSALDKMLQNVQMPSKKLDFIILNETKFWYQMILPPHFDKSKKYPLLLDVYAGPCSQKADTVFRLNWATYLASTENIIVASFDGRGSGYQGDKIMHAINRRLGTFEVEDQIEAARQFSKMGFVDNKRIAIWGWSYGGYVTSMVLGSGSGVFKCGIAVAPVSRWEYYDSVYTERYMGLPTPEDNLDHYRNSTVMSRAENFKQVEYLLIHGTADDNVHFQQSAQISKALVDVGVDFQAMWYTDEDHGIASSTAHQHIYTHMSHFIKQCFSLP
Protocol: (§1) For accurate assessment of kinetic parameters, saturating concentrations of substrate were used. For standard curves, dilutions of AFC (7-amino-4-trifluoromethylcoumarin) were prepared in the same assay buffer and corresponding fluorescence was measured.

[1] = target: T1, FAP activity on WI-38 fibroblast surfaces (Homo sapiens, UniProt Q12884); assay: Whole cell activity assay, cleavage of C95 on WI-38 fibroblasts; type: cell-based; conditions: substrate C95, inhibitor 10 μM, 1 μM or 100 nM added at two hours
T1 construct: host or cells: WI-38 fibroblasts
T1 sequence (Q12884 1-760): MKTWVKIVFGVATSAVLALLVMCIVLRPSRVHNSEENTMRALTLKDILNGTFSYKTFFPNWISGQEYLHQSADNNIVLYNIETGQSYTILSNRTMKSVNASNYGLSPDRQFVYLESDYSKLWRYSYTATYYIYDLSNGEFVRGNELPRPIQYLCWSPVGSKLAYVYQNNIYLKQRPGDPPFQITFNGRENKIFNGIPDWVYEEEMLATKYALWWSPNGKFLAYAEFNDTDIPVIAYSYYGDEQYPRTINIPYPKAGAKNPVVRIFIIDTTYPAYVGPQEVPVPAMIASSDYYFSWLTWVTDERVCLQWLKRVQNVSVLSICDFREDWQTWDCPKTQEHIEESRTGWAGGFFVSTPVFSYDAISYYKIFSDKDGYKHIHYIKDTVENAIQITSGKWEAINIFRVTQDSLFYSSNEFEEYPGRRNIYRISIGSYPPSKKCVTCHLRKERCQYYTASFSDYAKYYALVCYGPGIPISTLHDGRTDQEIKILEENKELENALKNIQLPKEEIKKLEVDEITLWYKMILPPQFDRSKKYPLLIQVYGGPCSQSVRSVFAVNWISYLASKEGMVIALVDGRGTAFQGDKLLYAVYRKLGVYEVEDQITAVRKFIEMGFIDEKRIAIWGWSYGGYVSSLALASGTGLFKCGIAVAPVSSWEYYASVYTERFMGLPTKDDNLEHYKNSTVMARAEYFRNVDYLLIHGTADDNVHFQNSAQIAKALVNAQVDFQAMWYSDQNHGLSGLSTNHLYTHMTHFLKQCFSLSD
Protocol: WI-38 fibroblasts were grown on plastic, washed once with HBSS, after which the M83 inhibitor 10 μM in HBSS was added at zero time to one set, and buffer only to the other four sets. The fluorescent substrate C95 was added to all sets of wells and Δ fluorescence/min, reflecting cleavage of C95 over time, was allowed to proceed for two hours when 10 μM, 1 μM or 100 nM of the M83 inhibitor was added to each of three sets of wells.
Whole cell activity assays: Cells were cultured in normal growth media unless otherwise stated. […] Ten μl of fluorescent substrate, C95 were added to give a final concentration of 125 μM, and fluorescence was measured with time at 360/460 nm excitation/emission wavelengths using an FL600 microplate fluorescence reader (Bio-tek Instruments). Fluorescence units were converted to FAP units/100,000 cells by using a conversion factor determined from an APCE standard curve of prolyl-specific endopeptidase activity, such that 1 FAP unit is equivalent to the fluorescence produced by 1 ng of APCE/min. Since FAP and POP cleave the C95 substrate at an equivalent rate, both FAP and POP activities are expressed as FAP units in all figures.

[2] = system: HCT116 human colon cancer xenografts; assay: HCT116 human colon cancer xenografts in immunodeficient mice; type: in vivo; conditions: 28-day treatment period
POP = target: T2, POP (Homo sapiens, UniProt P48147); assay: POP inhibition constants (Ki) with Tic-Pro-AFC substrate; type: biochemical
T2 sequence (P48147 1-710): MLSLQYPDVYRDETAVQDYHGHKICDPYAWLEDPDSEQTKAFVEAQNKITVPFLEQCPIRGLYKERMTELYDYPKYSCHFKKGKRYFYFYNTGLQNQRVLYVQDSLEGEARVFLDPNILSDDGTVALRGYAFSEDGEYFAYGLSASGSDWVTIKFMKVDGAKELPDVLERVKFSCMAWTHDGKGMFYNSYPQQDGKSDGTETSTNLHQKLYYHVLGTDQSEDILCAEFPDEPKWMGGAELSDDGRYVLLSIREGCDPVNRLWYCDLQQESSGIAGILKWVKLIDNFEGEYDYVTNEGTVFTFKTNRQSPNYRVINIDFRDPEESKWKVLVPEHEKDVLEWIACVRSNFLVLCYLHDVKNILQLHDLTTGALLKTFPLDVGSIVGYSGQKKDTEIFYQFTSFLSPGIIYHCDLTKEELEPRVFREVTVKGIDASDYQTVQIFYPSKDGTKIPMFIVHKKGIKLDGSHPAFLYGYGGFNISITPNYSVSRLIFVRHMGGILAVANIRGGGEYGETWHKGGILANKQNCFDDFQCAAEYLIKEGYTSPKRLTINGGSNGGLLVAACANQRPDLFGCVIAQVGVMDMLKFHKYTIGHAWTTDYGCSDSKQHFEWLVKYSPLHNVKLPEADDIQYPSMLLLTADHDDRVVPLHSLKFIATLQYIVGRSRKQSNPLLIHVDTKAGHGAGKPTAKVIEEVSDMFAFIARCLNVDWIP
Protocol: as §1

Aqueous solubility = type: physicochemical; conditions: result in words
Protocol: The specific POP inhibitor, J94 (acetyl-Lys-Leu-Arg-(L)boroPro (Ki<100 nM)); and the substrate, C95 (acetyl-Arg-AEEA-Gly-Pro-AMC), were designed, synthesized and characterized by us as previously reported. […] The inhibitors (J94 and M83) were dissolved in Hanks Balanced Salt Solution (HBSS; Gibco) at 1 mM and stored at −20° C. The substrate (C95) was dissolved in HBSS at 2.5 mM and stored at 4° C. […] Tic-Pro-AFC, a prolyl-specific fluorescent substrate, was supplied by Vantia (Southampton, England).

SMILES: CC(=O)N[C@@H](CCCNC(=N)N)C(=O)NCCOCCOCC(=O)N[C@H](C)C(=O)N1CCC[C@H]1B(O)O [Compound M83, acetyl-Arg-AEEA-(D)Ala-(L)boroPro]
- Selectivity Ki (DPPIV) / Ki (APCE-FAP) (DPPIV; ratio of Ki values): 1076
- inhibition of DPPIV (DPPIV; result in words): nor was it inhibited
- Ki (DPPIV; substrate Tic-Pro-AFC): 6.13 µM and 6.14 µM
- inhibition of FAP proteolytic activity on the cell surface [1]: instantly, and essentially totally, inhibited; also recorded: instantly abolished endopeptidase activity
- effectiveness on cancer growth relative to J94 [2]: slightly more effective than this
- Selectivity Ki (POP) / Ki (APCE/FAP) (POP; ratio of Ki values): 1.3
- Ki (POP; substrate Tic-Pro-AFC): 7.4 nM
- solubility in aqueous buffers (Aqueous solubility): soluble in aqueous buffers
